According to US20230416329A1, “A PEPTIDE WITH DISULFIDE BONDS AND INHIBITORY ACTIVITY AGAINST SERINE PROTEASES, DERIVED HYBRID PEPTIDES THEREOF, AND USES THEREOF” (INSTITUTE OF MATERIA MEDICA , CHINESE ACADEMY OF MEDICAL …, priority 2020, published 2023):
Bridge positions count the residues as written; N and C are the ends. Ends that are not written are not given here. Peptide text beside a SMILES is read from it.

Assays:
trypsin = biological target: T1, trypsin (Bos taurus, UniProt P00760); assay: in vitro; conditions: for Remaining peak area (%)/Trypsin: 0 h
T1 sequence (P00760 24-246): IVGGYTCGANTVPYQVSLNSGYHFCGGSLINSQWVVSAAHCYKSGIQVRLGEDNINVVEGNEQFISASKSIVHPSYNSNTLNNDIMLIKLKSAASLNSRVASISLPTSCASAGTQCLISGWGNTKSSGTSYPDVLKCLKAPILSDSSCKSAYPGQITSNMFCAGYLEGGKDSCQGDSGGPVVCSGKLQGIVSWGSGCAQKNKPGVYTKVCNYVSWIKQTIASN
Summary of the method: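 Remaining RP-HPLC peak area tracks undigested peptide over time. Samples were quenched with 10% TFA at time points between 1.5 and 60 min during 37 °C digestion. Trypsin was added from a 0.05 μg/μL solution after 5 min of thermal equilibration.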

chymotrypsin = chymotrypsin (Bos taurus, UniProt P00766); assay: in vitro
Summary of the method: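 RP-HPLC peak area tracked intact peptide after 37 °C digestion with chymotrypsin (0.05 μg/μL solution, 5 min preincubation). Samples were withdrawn at 1.5-60.0 min and stopped with 10% TFA.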

rats = assay: Hypo-calcifying effect of salmon calcitonin and analogues, blood calcium concentration in rats; type: in vivo, rat; conditions: sCat and CalM subcutaneous, capsule form Cal BT 1 umol/kg p.o., 0-24 h
Method: FIG. 24. The blood calcium concentration percentage-time curve of rat.
(§1) Rats were fasted for 12 hours with water ad libitum before the experiment. The animals were randomly divided into 4 groups (5 animals in each group). The normal control group was injected with normal saline solution, and the commercially available salmon Calcitonin (sCat) and synthetic Calcitonin analog (CalM) were injected subcutaneously. The capsule form Cal BT (1 umol/kg, p.o.) was administered by gavage.
Take blood from the inner canthus of rats at the predetermined time points: 0, 2, 3, 4, 6, 8, 12, and 24 h later, with at least 0.2 mL of blood taken each time. The blood sample was placed at 4° C. for stratification and centrifuged at 3000 rpm for 10 minutes. The serum was separated and measured for serum calcium ion concentration.
The serum calcium ion concentration at 0 h was considered as baseline, the blood calcium concentration at other time was converted into the percentage ratio of baseline. The blood calcium curve was drawn with time as the X axis and the percentage of blood calcium concentration (%) as the Y axis.

[1] = rat, in vivo
Method: as §1

mouse ear swelling = assay: Croton oil mouse ear swelling, IL-17A inhibitory peptide administered subcutaneously; type: in vivo; conditions: subcutaneous, peptides 30 mg/kg, Secukinumab 5 mg/kg
Method: IL-17A is an inflammatory factor in many chronic inflammatory reactions. In order to quickly evaluate and analyze its anti-inflammatory effects, a mouse ear swelling model was first used for preliminary screening of anti-inflammatory activities. The experimental process is as follows. Kunming male mice (18-20 g, n=10) were labeled with picric acid. All mice in each group were coated with 10 μL croton oil on both sides of the right ear. Immediately after modeling, the positive drugs Secukinumab group (5 mg/kg), inhibitory peptides 17A, 17A-BT, 17A-CH, and 17A-EC (30 mg/kg) were subcutaneously injected. The model control group (Con) was injected with a corresponding volume of physiological saline. After causing inflammation for 4 hours, the mice in each group were killed for cervical dislocation, and then the ear pieces were punched in the symmetrical parts of the left and right ears with a hole punch. The weight was weighed and recorded. The swelling degree and swelling rate were calculated:
Swelling rate=((right ear mass−left ear mass)/left ear mass)*100%

[2] = biological target: T2, interaction of PCSK9-LDLR (Homo sapiens, UniProt Q8NBP7); assay: PCSK9-LDLR in vitro binding assay (inhibitory rate); conditions: in vitro
T2 construct: purchased MBL Company, Beijing, China CY-8150
Summary of the method: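 Polypeptide (final 50 μM) pre-incubated 20 min at room temperature with PCSK9 (final 75 ng/mL), then run in a PCSK9-LDLR binding kit read at OD450/540 nm. Inhibition rate calculated relative to a solvent control (water or DMSO) lacking polypeptide.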

[3] = tested on: P407-induced hyperlipidemia mice; assay: Subcutaneous injection of PCSK9 inhibitory peptide, serum total cholesterol in P407-induced hyperlipidemia mice; type: in vivo, mouse; conditions: for serum total cholesterol (TC) level after subcutaneous injection (in words): 2 μmol/kg single s.c., P407-induced hyperlipidemia mice
Summary of the method: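 ICR mice, fasted overnight, received intraperitoneal P407 at 500 mg/kg. After 24 h they received subcutaneous peptide at 2 μmol/kg in 20% PEG400; vehicle-treated and normal groups served as controls. Serum total cholesterol was measured at various times after dosing.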

[4] = tested on: P407 induced hyperlipidemia mice; assay: Duodenal injection of PCSK9 inhibitory peptide, serum total cholesterol in P407 induced hyperlipidemia mice; type: in vivo, mouse
Method: The experimental polypeptide sample was prepared using PEG400 with a final concentration of 20 μmol/kg and the final concentration of PEG400 is 50% (w/v). The control group was saline containing PEG400 (50%).
Normal ICR mice were fasted overnight with water ad libitum. The next day, all of the mice were intraperitoneally injected with poloxamer 407 (P407, 500 mg/kg) to establish a model of lipid metabolism disorder. Six mice were intraperitoneally injected with saline as a normal control (Nor). Normal feeding resumed after 2 hours. The model animals were randomly divided into model group (Con) and polypeptide groups according to body weight, and the blood was collected from tail tip (0 min). Then, the animals were anesthetized with ether for duodenal exposure surgery. At the same time, a sample or saline containing PEG400 was injected through the duodenum. Finally, the wound was sutured. The blood was collected from tail tip at 15, 30, 60, and 90 minutes after administration to determine the serum total cholesterol level.

[5] = isolated enzyme trypsin, pH 7.8
[6] = isolated enzyme chymotrypsin, pH 7.8, Remaining peak area (%)/chymotrypsin

CC[C@H](C)[C@@H]1NC(=O)[C@@H]2CCCN2C(=O)[C@@H]2CCCN2C(=O)[C@H]([C@@H](C)CC)NC(=O)[C@H](CO)NC(=O)[C@H](CCCCN)NC(=O)[C@H]([C@@H](C)O)NC(=O)[C@H](C)NC(=O)[C@H](CCCNC(=N)N)NC(=O)[C@H](C)NC(=O)[C@@H](NC(=O)CNC(=O)[C@@H]2CCCN2C(=O)[C@@H](NC(=O)CNC(=O)[C@H](CO)NC(=O)CNC(=O)[C@@H](NC(=O)[C@H](CC(N)=O)NC(=O)[C@@H](NC(=O)[C@H](CCCNC(=N)N)NC(=O)[C@@H]2CCCN2C(=O)[C@H](Cc2ccc(O)cc2)NC(=O)[C@@H](NC(=O)[C@H](CCC(N)=O)NC(=O)[C@H](CC(C)C)NC(=O)[C@H](CCCCN)NC(=O)[C@H](Cc2c[nH]cn2)NC(=O)[C@H](C)NC(=O)[C@H](CCC(=O)O)NC(=O)[C@H](CCC(N)=O)NC(=O)[C@H](CO)NC(=O)[C@H](CC(C)C)NC(=O)[C@H](CCCCN)NC(=O)CNC(=O)[C@H](CC(C)C)NC(=O)CNC(=O)[C@@H]2CSSC[C@H](N)C(=O)N[C@@H](CO)C(=O)N[C@@H](CC(N)=O)C(=O)N[C@@H](CC(C)C)C(=O)N[C@@H](CO)C(=O)N[C@@H]([C@@H](C)O)C(=O)N2)[C@@H](C)O)[C@@H](C)O)[C@@H](C)O)[C@@H](C)O)CSSC[C@@H](C(=O)N[C@@H](Cc2ccccc2)C(=O)O)NC1=O [Cal-BT]
stability towards trypsin hydrolysis (in words) (trypsin): resistant to the corresponding protease degradation
Remaining peak area (%)/Trypsin (trypsin): 100.0 ± 0.0%
remaining at 0.025 h, 60 μM (trypsin; [5]): 84.2 ± 5.6%
remaining at 0.05 h, 60 μM (trypsin; [5]): 87.8 ± 1%
remaining at 0.075 h, 60 μM (trypsin; [5]): 71.4 ± 0.9%
remaining at 0.1 h, 60 μM (trypsin; [5]): 74.3 ± 3.4%
remaining at 0.15 h, 60 μM (trypsin; [5]): 77.1 ± 8.4%
remaining at 0.25 h, 60 μM (trypsin; [5]): 69.4 ± 6.5%
remaining at 0.5 h, 60 μM (trypsin; [5]): 69.5 ± 6.6%
remaining at 1 h, 60 μM (trypsin; [5]): 68.2 ± 8.4%
stability towards chymotrypsin hydrolysis (in words) (chymotrypsin): high tolerance to chymotrypsin
Remaining peak area (%)/chymotrypsin (chymotrypsin; 0 h): 100.0 ± 0.0%
remaining at 0.025 h, 60 μM (chymotrypsin; [6]): 86.3 ± 9%
remaining at 0.05 h, 60 μM (chymotrypsin; [6]): 83.9%
remaining at 0.075 h, 60 μM (chymotrypsin; [6]): 73.1 ± 1.7%
remaining at 0.1 h, 60 μM (chymotrypsin; [6]): 71.8 ± 1.1%
remaining at 0.15 h, 60 μM (chymotrypsin; [6]): 70 ± 3%
remaining at 0.25 h, 60 μM (chymotrypsin; [6]): 61.3%
remaining at 0.5 h, 60 μM (chymotrypsin; [6]): 58.9 ± 2.3%
remaining at 1 h, 60 μM (chymotrypsin; [6]): 46 ± 1.3%
blood calcium concentration (in words) (rats): did not effectively reduce the blood calcium concentration of rats within 24 h after administration
blood calcium concentration (in words) (rats; listed as Cal BT): did not effectively reduce the concentration of calcium ions in rats
Body weight (g) X ± SD End [1]: 158.9 ± 3.2 g
Body weight (g) X ± SD Start [1]: 176.1 ± 5.1 g
Changes of body weight (%) [1]: −9.80%

CC(C)C[C@H](NC(=O)CNC(=O)[C@@H]1CSSC[C@H](N)C(=O)N[C@@H](CO)C(=O)N[C@@H](CC(N)=O)C(=O)N[C@@H](CC(C)C)C(=O)N[C@@H](CO)C(=O)N[C@@H]([C@@H](C)O)C(=O)N1)C(=O)NCC(=O)N[C@@H](CCCCN)C(=O)N[C@@H](CC(C)C)C(=O)N[C@@H](CO)C(=O)N[C@@H](CCC(N)=O)C(=O)N[C@@H](CCC(=O)O)C(=O)N[C@@H](C)C(=O)N[C@@H](Cc1c[nH]cn1)C(=O)N[C@@H](CCCCN)C(=O)N[C@@H](CC(C)C)C(=O)N[C@@H](CCC(N)=O)C(=O)N[C@H](C(=O)N[C@@H](Cc1ccc(O)cc1)C(=O)N1CCC[C@H]1C(=O)N[C@@H](CCCNC(=N)N)C(=O)N[C@H](C(=O)N[C@@H](CC(N)=O)C(=O)N[C@H](C(=O)NCC(=O)N[C@@H](CO)C(=O)NCC(=O)N[C@H](C(=O)N1CCC[C@H]1C(=O)O)[C@@H](C)O)[C@@H](C)O)[C@@H](C)O)[C@@H](C)O [CalM] (H-CSNLSTCGLGKLSQEAHKLQTYPRTNTGSGTP-OH; disulfide 1-7)
stability towards trypsin hydrolysis (in words) (trypsin): extremely unstable towards trypsin
Remaining peak area (%)/Trypsin (trypsin): 100.0 ± 0.0%
remaining at 0.025 h, 60 μM (trypsin; [5]): 9 ± 2.3%
remaining at 0.05 h, 60 μM (trypsin; [5]): 0%
remaining at 0.075 h, 60 μM (trypsin; [5]): 0%
remaining at 0.1 h, 60 μM (trypsin; [5]): 0%
remaining at 0.15 h, 60 μM (trypsin; [5]): 0%
remaining at 1 h, 60 μM (chymotrypsin; isolated enzyme chymotrypsin, pH 7.8, prototype peptide remaining after chymotrypsin hydrolysis): ~4.9%
Body weight (g) X ± SD End [1]: 160.9 ± 4.7 g
Body weight (g) X ± SD Start [1]: 180.2 ± 6.8 g
Changes of body weight (%) [1]: −10.71%

Secukinumab: positive drug in the subcutaneous ear swelling test; anti IL-17A antibody
Swelling (%) (mouse ear swelling; 4 hours after croton oil): 72.54 ± 25.32 %
Swelling inhibitory (%) (mouse ear swelling; vs model control): 37.36%

Trp-Glu-Glu-Tyr-Leu-Asp-Tyr-Val-Gly-Phe-Cys-Thr-Tyr-Ser-Ile-Pro-Pro-Gln-Cys-Tyr-Gly-Thr-Val-Phe-Thr-Ser (WEEYLDYVGFCTYSIPPQCYGTVFTS; disulfide 11-19 (inferred)) [PCSK9_6CH]
inhibitory activity on the interaction between PCSK9 and LDLR (in words) [2]: good inhibitory activity on the interaction between PCSK9 and LDLR
inhibitory activity on the interaction between PCSK9 and LDLR (in words) ([2]; listed as SEQ ID NO: 230): good inhibitory effects in vitro
serum total cholesterol (TC) level after subcutaneous injection (in words) [3]: reduced serum TC level
serum total cholesterol (TC) level after subcutaneous injection (in words) ([3]; listed as SEQ ID NO: 230): excellent lowering lipid (total cholesterol) activities in vivo
TC 15 min ([3]; serum, subcutaneous 2 μmol/kg, 15 min after administration, mean ± sd): 3201 ± 1389 µg/mL
TC 30 min ([3]; serum, subcutaneous 2 μmol/kg, 30 min after administration, mean ± sd): 3363 ± 865 µg/mL
TC 60 min ([3]; serum, subcutaneous 2 μmol/kg, 60 min after administration, mean ± sd): 2691 ± 979 µg/mL
TC 90 min ([3]; serum, subcutaneous 2 μmol/kg, 90 min after administration, mean ± sd): 2655 ± 954 µg/mL
hypolipidemic activity after duodenal administration (in words) ([4]; 20 μmol/kg, P407 induced hyperlipidemia mice): did not show hypolipidemic activity
TC 15 min ([4]; serum, duodenal injection 20 μmol/kg, 15 min, mean ± sd): 2742 ± 651 µg/mL
TC 30 min ([4]; serum, duodenal injection 20 μmol/kg, 30 min, mean ± sd): 3071 ± 590 µg/mL
TC 60 min ([4]; serum, duodenal injection 20 μmol/kg, 60 min, mean ± sd): 3127 ± 567 µg/mL
TC 90 min ([4]; serum, duodenal injection 20 μmol/kg, 90 min, mean ± sd): 2986 ± 650 µg/mL
